How the values were obtained:
Estrogen receptor = target: T1, Estrogen receptor (Homo sapiens, UniProt P03372); test: Displacement of fluorescent ligand from human recombinant GST-tagged ER-alpha ligand binding domain (307 to 554 residues) incubated for 15 mins by TR-FRET based competitive assay
T1 sequence (P03372 whole entry): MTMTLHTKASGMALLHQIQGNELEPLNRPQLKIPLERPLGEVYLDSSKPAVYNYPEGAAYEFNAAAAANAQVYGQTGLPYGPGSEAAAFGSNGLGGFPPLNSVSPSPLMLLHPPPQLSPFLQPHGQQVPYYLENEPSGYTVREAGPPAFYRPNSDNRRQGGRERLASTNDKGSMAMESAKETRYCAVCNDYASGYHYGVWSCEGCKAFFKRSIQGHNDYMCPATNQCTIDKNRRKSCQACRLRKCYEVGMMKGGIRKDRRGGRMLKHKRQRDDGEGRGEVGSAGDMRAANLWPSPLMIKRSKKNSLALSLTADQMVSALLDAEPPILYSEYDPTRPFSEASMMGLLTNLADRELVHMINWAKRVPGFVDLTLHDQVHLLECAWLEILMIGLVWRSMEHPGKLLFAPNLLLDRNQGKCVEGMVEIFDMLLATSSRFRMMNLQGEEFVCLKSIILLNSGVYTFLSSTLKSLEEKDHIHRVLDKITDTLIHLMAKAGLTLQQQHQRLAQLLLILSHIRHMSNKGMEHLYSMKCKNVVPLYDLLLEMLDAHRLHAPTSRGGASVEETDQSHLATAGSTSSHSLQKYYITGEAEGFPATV

[1] = target: T2, von Hippel-Lindau disease tumor suppressor/Estrogen receptor (Homo sapiens, UniProt P03372+P40337); test: Induction of VHL E3 ligase mediated ERalpha degradation in human MCF7 cells at 0.3 uM by cell-based immunofluorescence assay
Target sequence in this assay (P40337 whole entry, looked up, one chain of several): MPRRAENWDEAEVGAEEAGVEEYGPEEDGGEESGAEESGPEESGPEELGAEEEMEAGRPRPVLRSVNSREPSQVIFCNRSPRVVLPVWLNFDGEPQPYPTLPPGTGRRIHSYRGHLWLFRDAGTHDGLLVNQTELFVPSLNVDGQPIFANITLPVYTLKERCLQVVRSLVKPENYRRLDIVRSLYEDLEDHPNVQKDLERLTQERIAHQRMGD

[2] = target: T2, von Hippel-Lindau disease tumor suppressor/Estrogen receptor; test: Induction of VHL E3 ligase mediated ERalpha degradation in human MCF7 cells assessed as downregulation of ERalpha expression by cell-based immunofluorescence assay
Target sequence in this assay (P40337 whole entry, one chain of several): as the sequence (P40337 whole entry, looked up, one chain of several) above

Compound | IC50 (Estrogen receptor) [nM] | Activity [1] [%] | IC50 [2] [nM]
Cc1ncsc1-c1ccc([C@H](C)NC(=O)[C@@H]2C[C@@H](O)CN2C(=O)[C@@H](NC(=O)COCCOCCCCCOc2cc(F)c([C@@H]3c4[nH]c5ccccc5c4C[C@@H](C)N3CC(C)(C)F)c(F)c2)C(C)(C)C)cc1 | 0.5 | > 90 | 0.6
Cc1ncsc1-c1ccc(CNC(=O)[C@@H]2C[C@@H](O)CN2C(=O)[C@@H](NC(=O)COCCCOCCCOc2cc(F)c([C@@H]3c4[nH]c5ccccc5c4C[C@@H](C)N3CC(C)(C)F)c(F)c2)C(C)(C)C)cc1 |  | > 90 | 0.3 to 0.4
Cc1ncsc1-c1ccc(CNC(=O)[C@@H]2C[C@@H](O)CN2C(=O)[C@@H](NC(=O)COCCCOCCOc2cc(F)c([C@@H]3c4[nH]c5ccccc5c4C[C@@H](C)N3CC(C)(C)F)c(F)c2)C(C)(C)C)cc1 |  | > 90 | 0.4
Cc1ncsc1-c1ccc([C@H](C)NC(=O)[C@@H]2C[C@@H](O)CN2C(=O)[C@@H](NC(=O)COCCOCCOCCOc2cc(F)c([C@@H]3c4[nH]c5ccccc5c4C[C@@H](C)N3CC(C)(C)F)c(F)c2)C(C)(C)C)cc1 |  | > 90 | 0.3
Cc1ncsc1-c1ccc(CNC(=O)[C@@H]2C[C@@H](O)CN2C(=O)[C@@H](NC(=O)COCCOCCC(F)(F)CCOc2cc(F)c([C@@H]3c4[nH]c5ccccc5c4C[C@@H](C)N3CC(C)(C)F)c(F)c2)C(C)(C)C)cc1 |  | > 90 | 0.8
C[C@]12CC[C@@H]3c4ccc(O)cc4C[C@@H](CCCCCCCCC[S+]([O-])CCCC(F)(F)C(F)(F)F)[C@H]3[C@@H]1CC[C@@H]2O (some centres not stated) |  | 100 | 

Source: ChEMBL document CHEMBL4304828, “PROTAC-Mediated Degradation of Estrogen Receptor in the Treatment of Cancer” (ACS Med Chem Lett, 2019)
